In general, pIC50 refers to −log10 of the IC50, conventionally taken in molar units.

pIC50: −log10 of the molar value.

In the experiment the test system is MOLM-13 cells. Briefly: MOLM-13 Cell Proliferation Assay (indicator of DHODH inhibition). Particulars: Homo sapiens, 72 Hours of culture, CellTiter-Glo, no uridine. The class given is cell-based. Summed up:
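Low-passage MOLM-13 cells (10^4/well) in RPMI 1640 + 10% FBS exposed to compound (0.5% DMSO final) for 72 h at 37 °C, 5% CO2. Viability read by CellTiter-Glo luminescence; growth reflects de novo pyrimidine synthesis dependent on DHODH.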
For orientation: Cellular ATP, detected with luciferase, serves as a proxy for viable cell number.

Regarding `Cc1ccc(C2c3[nH]c4ccc(Cl)c(F)c4c3CCN2c2ncc(C)cn2)cc1` (centres unmarked) [Compound 135, 6-chloro-5-fluoro-1-(4-methylphenyl)-2-(5-methylpyrimidin-2-yl)-2,3,4,9-tetrahydro-1H-pyrido[3,4-b]indole], the pIC50 was 7.99. The molecule `Cc1ccnc(N2CCc3c([nH]c4cc(F)c(Cl)cc34)C2c2ccc(Cl)cc2)n1` (centres unmarked) [Compound 38, 6-chloro-1-(4-chlorophenyl)-7-fluoro-2-(4-methylpyrimidin-2-yl)-2,3,4,9-tetrahydro-1H-pyrido[3,4-b]indole] had a pIC50 of 7.61.

`FC(F)(F)c1ccnc(N2CCc3c([nH]c4ccc(Cl)cc34)C2c2ccc(-n3cnnc3)cc2)n1` (centres unmarked) [Compound 269, 6-chloro-1-[4-(4H-1,2,4-triazol-4-yl)phenyl]-2-[4-(trifluoromethyl)pyrimidin-2-yl]-2,3,4,9-tetrahydro-1H-pyrido[3,4-b]indole]: the pIC50 is 7.01. This pIC50 lies 0.60 log units lower than the previous one. `CN1CCN(c2ncc([C@H]3c4[nH]c5ccc(Cl)cc5c4CCN3c3nccc(C(F)(F)F)n3)cn2)CC1` [Compound 484, (1S)-6-chloro-1-[2-(4-methylpiperazin-1-yl)pyrimidin-5-yl]-2-[4-(trifluoromethyl)pyrimidin-2-yl]-2,3,4,9-tetrahydro-1H-pyrido[3,4-b]indole] showed a pIC50 of 8.59. The molecule `Cc1ccc(C2c3[nH]c4ccc(Cl)c(F)c4c3CCN2c2ncc(F)c(C#N)n2)cc1` (centres unmarked) [Compound 217, 2-[6-chloro-5-fluoro-1-(4-methylphenyl)-1,3,4,9-tetrahydro-2H-pyrido[3,4-b]indol-2-yl]-5-fluoropyrimidine-4-carbonitrile] gave a pIC50 of 8.66. This pIC50 and that of the molecule before are within 0.2 log units of each other. `Cc1cc(C)nc(N2CCc3c([nH]c4cc(F)c(Cl)cc34)C2c2ccc(C)c(F)c2F)n1` (centres unmarked) [Compound 132, 6-chloro-1-(2,3-difluoro-4-methylphenyl)-2-(4,6-dimethylpyrimidin-2-yl)-7-fluoro-2,3,4,9-tetrahydro-1H-pyrido[3,4-b]indole] showed a negative logarithm of the IC50 (pIC50) of 8.68. This pIC50 and that of the molecule before are within 0.2 log units of each other. Then `Fc1cncc(C2c3[nH]c4ccc(Cl)c(F)c4c3CCN2c2nccc(C(F)(F)F)n2)c1` (centres unmarked) [Compound 146, 6-chloro-5-fluoro-1-(5-fluoropyridin-3-yl)-2-[4-(trifluoromethyl)pyrimidin-2-yl]-2,3,4,9-tetrahydro-1H-pyrido[3,4-b]indole], with 7.94. `CN(C)c1ncc(C2c3[nH]c4cc(F)c(Cl)cc4c3CCN2c2nccc(C(F)(F)F)n2)cc1F` (centres unmarked) [Compound 158, 5-{6-chloro-7-fluoro-2-[4-(trifluoromethyl)pyrimidin-2-yl]-2,3,4,9-tetrahydro-1H-pyrido[3,4-b]indol-1-yl}-3-fluoro-N,N-dimethylpyridin-2-amine] gave a pIC50 of 8.01. This pIC50 and that of the molecule before are within 0.2 log units of each other. Turning to `N#Cc1ccnc(N2CCc3c([nH]c4cc(F)c(Cl)cc34)C2c2ccc(/C=C/CCO)cc2)n1` (centres unmarked) [Compound 224, 2-(6-chloro-7-fluoro-1-{4-[(1E)-4-hydroxybut-1-en-1-yl]phenyl}-1,3,4,9-tetrahydro-2H-pyrido[3,4-b]indol-2-yl)pyrimidine-4-carbonitrile], the pIC50 was 8.41. The figure for `Cc1ccc(C2c3[nH]c4ccc(Cl)cc4c3CCN2c2nc(C(F)(F)F)cc(C(F)(F)F)n2)cc1` (centres unmarked) [Compound 360, 2-[4,6-bis(trifluoromethyl)pyrimidin-2-yl]-6-chloro-1-(4-methylphenyl)-2,3,4,9-tetrahydro-1H-pyrido[3,4-b]indole] is 9.05. The molecule `Cc1nc(C)nc(N2CCc3c([nH]c4c(O)cc(Cl)cc34)C2c2ccc(N3CCOCC3)nc2)n1` (centres unmarked) [Compound 339, 6-chloro-2-(4,6-dimethyl-1,3,5-triazin-2-yl)-1-[6-(morpholin-4-yl)pyridin-3-yl]-2,3,4,9-tetrahydro-1H-pyrido[3,4-b]indol-8-ol] gave a pIC50 of 7.87.

Turning to `CCCCN(CCCC)c1nc(C)nc(N2CCc3c([nH]c4ccc(Cl)cc34)C2c2cnc(N3CCOCC3)nc2)n1` (centres unmarked) [Compound 315, N,N-dibutyl-4-{6-chloro-1-[2-(morpholin-4-yl)pyrimidin-5-yl]-1,3,4,9-tetrahydro-2H-pyrido[3,4-b]indol-2-yl}-6-methyl-1,3,5-triazin-2-amine], the pIC50 is 7.93.

The molecule `Cc1cc(C)nc(N2CCc3c([nH]c4ccc(Cl)c(F)c34)C2c2ccc(/C=C/CCO)cc2)n1` (centres unmarked) [Compound 242, (3E)-4-{4-[6-chloro-2-(4,6-dimethylpyrimidin-2-yl)-5-fluoro-2,3,4,9-tetrahydro-1H-pyrido[3,4-b]indol-1-yl]phenyl}but-3-en-1-ol] showed a pIC50 of 8.49. As to `Cc1nc(N2CCc3c([nH]c4ccc(Cl)cc34)C2c2ccc(N3CCOCC3)nc2)nc(C(F)(F)F)n1` (centres unmarked) [Compound 439, 6-chloro-2-[4-methyl-6-(trifluoromethyl)-1,3,5-triazin-2-yl]-1-[6-(morpholin-4-yl)pyridin-3-yl]-2,3,4,9-tetrahydro-1H-pyrido[3,4-b]indole], the pIC50 is 8.72. The molecule `Fc1cc2[nH]c3c(c2cc1Cl)CCN(c1ncc(C(F)(F)F)cn1)C3c1cccc(F)c1F` (centres unmarked) [Compound 133, 6-chloro-1-(2,3-difluorophenyl)-7-fluoro-2-[5-(trifluoromethyl)pyrimidin-2-yl]-2,3,4,9-tetrahydro-1H-pyrido[3,4-b]indole] showed a pIC50 of 7.95.

Turning to `Cc1nc(C)nc(N2CCc3c([nH]c4c(N)cc(Cl)cc34)C2c2cnc(N3CCOCC3)nc2)n1` (centres unmarked) [Compound 309, 6-chloro-2-(4,6-dimethyl-1,3,5-triazin-2-yl)-1-[2-(morpholin-4-yl)pyrimidin-5-yl]-2,3,4,9-tetrahydro-1H-pyrido[3,4-b]indol-8-amine], the pIC50 was 8.25. `N#Cc1ccnc(N2CCc3c([nH]c4ccc(Cl)c(F)c34)C2c2ccc(/C=C/CCO)cc2)n1` (centres unmarked) [Compound 236, 2-(6-chloro-5-fluoro-1-{4-[(1E)-4-hydroxybut-1-en-1-yl]phenyl}-1,3,4,9-tetrahydro-2H-pyrido[3,4-b]indol-2-yl)pyrimidine-4-carbonitrile] had a pIC50 of 8.74.

In turn, `Cc1cnn(-c2ccc3[nH]c4c(c3c2)CCN(c2nc(C(F)(F)F)cc(C(F)(F)F)n2)C4c2ccc(N3CCOCC3)nc2)n1` (centres unmarked) [Compound 455, 2-[4,6-bis(trifluoromethyl)pyrimidin-2-yl]-6-(4-methyl-2H-1,2,3-triazol-2-yl)-1-[6-(morpholin-4-yl)pyridin-3-yl]-2,3,4,9-tetrahydro-1H-pyrido[3,4-b]indole] had a pIC50 of 8.28. `Cc1ccnc(N2CCc3c([nH]c4ccc(Cl)c(F)c34)C2c2ccc(F)cc2)n1` (centres unmarked) [Compound 90, 6-chloro-5-fluoro-1-(4-fluorophenyl)-2-(4-methylpyrimidin-2-yl)-2,3,4,9-tetrahydro-1H-pyrido[3,4-b]indole]: the pIC50 is 7.54. The figure for `Cc1ccnc(N2CCc3c([nH]c4cc(F)c(Cl)cc34)C2c2ccc(F)cc2)n1` (centres unmarked) [Compound 9, 6-chloro-7-fluoro-1-(4-fluorophenyl)-2-(4-methylpyrimidin-2-yl)-2,3,4,9-tetrahydro-1H-pyrido[3,4-b]indole] is 7.44; for `Cc1nc(C)nc(N2CCc3c([nH]c4ccc([N+](=O)[O-])cc34)C2c2cnc(N3CCOCC3)nc2)n1` (centres unmarked) [Compound 313, 2-(4,6-dimethyl-1,3,5-triazin-2-yl)-1-[2-(morpholin-4-yl)pyrimidin-5-yl]-6-nitro-2,3,4,9-tetrahydro-1H-pyrido[3,4-b]indole] it is 7.74. `CN(C)c1ncnc(N2CCc3c([nH]c4ccc(Cl)cc34)C2c2cnc(N3CCOCC3)nc2)n1` (centres unmarked) [Compound 297, 4-{6-chloro-1-[2-(morpholin-4-yl)pyrimidin-5-yl]-1,3,4,9-tetrahydro-2H-pyrido[3,4-b]indol-2-yl}-N,N-dimethyl-1,3,5-triazin-2-amine] had a pIC50 of 7.11. Molecule `Fc1cc2[nH]c3c(c2cc1Cl)CCN(c1ncc(Cl)cn1)C3c1cccc(F)c1F` (centres unmarked) [Compound 131, 6-chloro-2-(5-chloropyrimidin-2-yl)-1-(2,3-difluorophenyl)-7-fluoro-2,3,4,9-tetrahydro-1H-pyrido[3,4-b]indole] had a pIC50 of 8.04. The molecule `Cc1ccc([C@H]2c3[nH]c4ccc(Br)cc4c3CCN2c2nc(C(F)(F)F)cc(C(F)(F)F)n2)c(F)c1F` [Compound 518, (1S)-2-[4,6-bis(trifluoromethyl)pyrimidin-2-yl]-6-bromo-1-(2,3-difluoro-4-methylphenyl)-2,3,4,9-tetrahydro-1H-pyrido[3,4-b]indole] showed a pIC50 of 9.10. In the case of `Oc1ccc(C2c3[nH]c4cc(F)c(Cl)cc4c3CCN2c2ncc(F)cn2)cn1` (centres unmarked) [Compound 48, 5-[6-chloro-7-fluoro-2-(5-fluoropyrimidin-2-yl)-2,3,4,9-tetrahydro-1H-pyrido[3,4-b]indol-1-yl]pyridin-2-ol], the pIC50 was 6.65. `Fc1cnc(N2CCc3c([nH]c4cc(F)c(Cl)cc34)C2c2ccc(C3CC3)cc2)nc1` (centres unmarked) [Compound 31, 6-chloro-1-(4-cyclopropylphenyl)-7-fluoro-2-(5-fluoropyrimidin-2-yl)-2,3,4,9-tetrahydro-1H-pyrido[3,4-b]indole] gave a negative-log IC50 (pIC50) of 7.62. This pIC50 lies 0.97 log units higher than the previous one. As for `Fc1cnc(N2CCc3c([nH]c4cc(F)c(Cl)cc34)C2c2ccc(F)cc2F)nc1` (centres unmarked) [Compound 12, 6-chloro-1-(2,4-difluorophenyl)-7-fluoro-2-(5-fluoropyrimidin-2-yl)-2,3,4,9-tetrahydro-1H-pyrido[3,4-b]indole], the pIC50 is 7.45.

On to `Cc1nc(N(C)C)nc(N2CCc3c([nH]c4ccc(Cl)cc34)C2c2cnc(N3CCOCC3)nc2)n1` (centres unmarked) [Compound 290, 4-{6-chloro-1-[2-(morpholin-4-yl)pyrimidin-5-yl]-1,3,4,9-tetrahydro-2H-pyrido[3,4-b]indol-2-yl}-N,N,6-trimethyl-1,3,5-triazin-2-amine], for which the pIC50 was 7.71. Compared with the last molecule, the pIC50 is 0.26 log units higher.

Molecule `CN(C)c1ccc(C2c3[nH]c4cc(F)c(Cl)cc4c3CCN2c2ncc(F)cn2)cn1` (centres unmarked) [Compound 34, 5-[6-chloro-7-fluoro-2-(5-fluoropyrimidin-2-yl)-2,3,4,9-tetrahydro-1H-pyrido[3,4-b]indol-1-yl]-N,N-dimethylpyridin-2-amine] showed a pIC50 of 7.49.

The record behind these values is patent US20250186437A1, “CARBOLINE COMPOUNDS AND USE THEREOF” (PTC Therapeutics, Inc., priority 2021, published 2025).
